# Measured values: ChEMBL document CHEMBL5252552, “Defined concatenated α6α1β3γ2 GABAA receptor constructs reveal dual action of pyrazoloquinolinone allosteric modulators” (Bioorg Med Chem, 2019)
# pEC50: −log10 of the molar value.
# Experiments:
# [1] = target: T1, Gamma-aminobutyric acid receptor subunit alpha-6/beta-3/gamma-2 (Rattus norvegicus, UniProt P18508+P30191+P63079); test: (§1) Positive allosteric modulation of rat recombinant GABAA alpha6beta3alpha6-gamma2beta3 receptor expressed in Xenopus laevis oocytes assessed as increase in GABA-induced current amplitude at -80 mV holding potential in presence of GABA EC1 to 1.5 by two-electrode voltage-clamp assay; format: cell-based, Oocyte
# T1 sequence (P18508 whole entry): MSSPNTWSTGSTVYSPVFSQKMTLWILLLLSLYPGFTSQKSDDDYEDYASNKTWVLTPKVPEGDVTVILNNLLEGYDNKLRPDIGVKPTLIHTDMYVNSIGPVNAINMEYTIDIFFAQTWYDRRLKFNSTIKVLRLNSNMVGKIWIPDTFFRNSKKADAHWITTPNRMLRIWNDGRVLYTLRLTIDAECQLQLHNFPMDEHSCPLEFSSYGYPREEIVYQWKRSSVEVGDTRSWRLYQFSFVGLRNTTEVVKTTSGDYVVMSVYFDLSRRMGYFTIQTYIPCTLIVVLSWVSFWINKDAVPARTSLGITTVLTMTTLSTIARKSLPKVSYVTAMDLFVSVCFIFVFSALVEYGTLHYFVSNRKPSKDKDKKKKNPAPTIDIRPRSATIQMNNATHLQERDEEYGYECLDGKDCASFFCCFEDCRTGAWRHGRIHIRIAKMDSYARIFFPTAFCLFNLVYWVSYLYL
# T1 sequence (P30191 whole entry): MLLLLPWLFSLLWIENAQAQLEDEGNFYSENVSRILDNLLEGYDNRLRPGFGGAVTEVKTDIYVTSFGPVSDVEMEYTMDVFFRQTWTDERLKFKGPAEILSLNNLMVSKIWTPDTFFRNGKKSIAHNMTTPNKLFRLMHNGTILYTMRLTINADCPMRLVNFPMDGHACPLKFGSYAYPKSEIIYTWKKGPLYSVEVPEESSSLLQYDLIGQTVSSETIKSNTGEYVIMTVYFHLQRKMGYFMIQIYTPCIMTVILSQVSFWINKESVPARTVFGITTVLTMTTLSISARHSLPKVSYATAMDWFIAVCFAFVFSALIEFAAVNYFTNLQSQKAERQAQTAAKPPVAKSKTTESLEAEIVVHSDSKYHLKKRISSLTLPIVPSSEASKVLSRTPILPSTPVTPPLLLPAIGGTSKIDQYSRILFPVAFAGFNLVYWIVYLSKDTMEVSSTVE
# T1 sequence (P63079 whole entry): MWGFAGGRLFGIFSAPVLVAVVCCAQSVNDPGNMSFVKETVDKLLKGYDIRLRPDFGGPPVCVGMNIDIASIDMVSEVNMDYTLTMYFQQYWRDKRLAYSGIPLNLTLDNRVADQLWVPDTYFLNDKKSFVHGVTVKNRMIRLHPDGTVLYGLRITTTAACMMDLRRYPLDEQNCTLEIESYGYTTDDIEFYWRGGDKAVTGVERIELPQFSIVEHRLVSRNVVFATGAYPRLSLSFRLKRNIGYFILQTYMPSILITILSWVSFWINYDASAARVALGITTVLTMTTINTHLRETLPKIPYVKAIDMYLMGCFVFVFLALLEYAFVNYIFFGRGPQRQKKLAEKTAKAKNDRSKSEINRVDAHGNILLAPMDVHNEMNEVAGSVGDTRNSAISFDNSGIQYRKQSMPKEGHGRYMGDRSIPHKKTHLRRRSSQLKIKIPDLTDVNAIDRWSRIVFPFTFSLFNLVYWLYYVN
# [2] = target: T2, Gamma-aminobutyric acid receptor subunit alpha-6/beta-3/gamma-2 (Rattus norvegicus) (UniProt P18508+P30191+P63079); test: Positive allosteric modulation of rat recombinant GABAA alpha6beta3alpha6-gamma2beta3 receptor expressed in Xenopus laevis oocytes assessed as maximal current at -80 mV holding potential in presence of GABA EC1 to 1.5 by two-electrode voltage-clamp assay relative to control; format: cell-based; details: Oocyte, filed as positive allosteric modulator
# [3] = target: T2, Gamma-aminobutyric acid receptor subunit alpha-6/beta-3/gamma-2 (Rattus norvegicus); test: Positive allosteric modulation of rat recombinant GABAA alpha6beta3alpha6-gamma2beta3 receptor expressed in Xenopus laevis oocytes assessed as maximal efficacy at -80 mV holding potential at 3 nM in presence of GABA EC1 to 1.5 by two-electrode voltage-clamp assay; format: cell-based; details: Oocyte
# [4] = target: T2, Gamma-aminobutyric acid receptor subunit alpha-6/beta-3/gamma-2 (Rattus norvegicus); test: Positive allosteric modulation of rat recombinant GABAA alpha6beta3alpha6-gamma2beta3 receptor expressed in Xenopus laevis oocytes assessed as maximal efficacy at -80 mV holding potential at 10 nM in presence of GABA EC1 to 1.5 by two-electrode voltage-clamp assay; format: cell-based; details: Oocyte
# [5] = target: T2, Gamma-aminobutyric acid receptor subunit alpha-6/beta-3/gamma-2 (Rattus norvegicus); test: Positive allosteric modulation of rat recombinant GABAA alpha6beta3alpha6-gamma2beta3 receptor expressed in Xenopus laevis oocytes assessed as maximal efficacy at -80 mV holding potential at 30 nM in presence of GABA EC1 to 1.5 by two-electrode voltage-clamp assay; format: cell-based; details: Oocyte
# [6] = target: T2, Gamma-aminobutyric acid receptor subunit alpha-6/beta-3/gamma-2 (Rattus norvegicus); test: Positive allosteric modulation of rat recombinant GABAA alpha6beta3alpha6-gamma2beta3 receptor expressed in Xenopus laevis oocytes assessed as maximal efficacy at -80 mV holding potential at 100 nM in presence of GABA EC1 to 1.5 by two-electrode voltage-clamp assay; format: cell-based; details: Oocyte, filed as positive allosteric modulator
# [7] = target: T2, Gamma-aminobutyric acid receptor subunit alpha-6/beta-3/gamma-2 (Rattus norvegicus); test: Positive allosteric modulation of rat recombinant GABAA alpha6beta3alpha6-gamma2beta3 receptor expressed in Xenopus laevis oocytes assessed as maximal efficacy at -80 mV holding potential at 300 nM in presence of GABA EC1 to 1.5 by two-electrode voltage-clamp assay; format: cell-based; details: Oocyte, filed as positive allosteric modulator
# [8] = target: T2, Gamma-aminobutyric acid receptor subunit alpha-6/beta-3/gamma-2 (Rattus norvegicus); test: Positive allosteric modulation of rat recombinant GABAA alpha6beta3alpha6-gamma2beta3 receptor expressed in Xenopus laevis oocytes assessed as maximal efficacy at -80 mV holding potential at 1 uM in presence of GABA EC1 to 1.5 by two-electrode voltage-clamp assay; format: cell-based; details: Oocyte, filed as positive allosteric modulator
# [9] = target: T2, Gamma-aminobutyric acid receptor subunit alpha-6/beta-3/gamma-2 (Rattus norvegicus); test: Positive allosteric modulation of rat recombinant GABAA alpha6beta3alpha6-gamma2beta3 receptor expressed in Xenopus laevis oocytes assessed as maximal efficacy at -80 mV holding potential at 3 uM in presence of GABA EC1 to 1.5 by two-electrode voltage-clamp assay; format: cell-based; details: Oocyte, filed as positive allosteric modulator
# [10] = target: T2, Gamma-aminobutyric acid receptor subunit alpha-6/beta-3/gamma-2 (Rattus norvegicus); test: Positive allosteric modulation of rat recombinant GABAA alpha6beta3alpha6-gamma2beta3 receptor expressed in Xenopus laevis oocytes assessed as maximal efficacy at -80 mV holding potential at 10 uM in presence of GABA EC1 to 1.5 by two-electrode voltage-clamp assay; format: cell-based; details: Oocyte, filed as positive allosteric modulator
# [11] = target: T2, Gamma-aminobutyric acid receptor subunit alpha-6/beta-3/gamma-2 (Rattus norvegicus); test: Positive allosteric modulation of rat recombinant GABAA alpha6beta3alpha6-gamma2beta3 receptor expressed in Xenopus laevis oocytes assessed as maximal efficacy at -80 mV holding potential at 30 uM in presence of GABA EC1 to 1.5 by two-electrode voltage-clamp assay; format: cell-based; details: Oocyte, filed as positive allosteric modulator
# [12] = target: T1, Gamma-aminobutyric acid receptor subunit alpha-6/beta-3/gamma-2; test: as §1, with “potential under more potent phase” for “potential”; format: cell-based, Oocyte
# [13] = target: T1, Gamma-aminobutyric acid receptor subunit alpha-6/beta-3/gamma-2; test: as §1, with “potential under less potent phase” for “potential”; format: cell-based, Oocyte
# [14] = target: T2, Gamma-aminobutyric acid receptor subunit alpha-6/beta-3/gamma-2 (Rattus norvegicus); test: Positive allosteric modulation of rat recombinant GABAA alpha6beta3alpha6-gamma2beta3 receptor expressed in Xenopus laevis oocytes assessed as maximal current at -80 mV holding potential under more potent phase in presence of GABA EC1 to 1.5 by two-electrode voltage-clamp assay relative to control; format: cell-based; details: Oocyte, filed as positive allosteric modulator
# [15] = target: T2, Gamma-aminobutyric acid receptor subunit alpha-6/beta-3/gamma-2 (Rattus norvegicus); test: Positive allosteric modulation of rat recombinant GABAA alpha6beta3alpha6-gamma2beta3 receptor expressed in Xenopus laevis oocytes assessed as maximal current under less potent phase in presence of GABA EC1 to 1.5 by two-electrode voltage-clamp assay relative to control; format: cell-based; details: Oocyte, filed as positive allosteric modulator
# [16] = target: T2, Gamma-aminobutyric acid receptor subunit alpha-6/beta-3/gamma-2 (Rattus norvegicus); test: Positive allosteric modulation of rat recombinant GABAA alpha6beta3alpha6-gamma2beta3 receptor expressed in Xenopus laevis oocytes assessed as maximal efficacy at -80 mV holding potential at 1 nM in presence of GABA EC1 to 1.5 by two-electrode voltage-clamp assay; format: cell-based; details: Oocyte
# [17] = target: T3, Gamma-aminobutyric acid receptor subunit alpha-1/beta-3/gamma-2 (Rattus norvegicus) (UniProt P18508+P62813+P63079); test: Positive allosteric modulation of rat recombinant GABAA alpha1beta3alpha1-gamma2beta3 receptor expressed in Xenopus laevis oocytes assessed as maximal efficacy at -80 mV holding potential at 30 nM in presence of GABA EC1 to 1.5 by two-electrode voltage-clamp assay; format: cell-based; details: Oocyte
# [18] = target: T3, Gamma-aminobutyric acid receptor subunit alpha-1/beta-3/gamma-2 (Rattus norvegicus); test: Positive allosteric modulation of rat recombinant GABAA alpha1beta3alpha1-gamma2beta3 receptor expressed in Xenopus laevis oocytes assessed as maximal efficacy at -80 mV holding potential at 100 nM in presence of GABA EC1 to 1.5 by two-electrode voltage-clamp assay; format: cell-based; details: Oocyte
# [19] = target: T3, Gamma-aminobutyric acid receptor subunit alpha-1/beta-3/gamma-2 (Rattus norvegicus); test: Positive allosteric modulation of rat recombinant GABAA alpha1beta3alpha1-gamma2beta3 receptor expressed in Xenopus laevis oocytes assessed as maximal efficacy at -80 mV holding potential at 300 nM in presence of GABA EC1 to 1.5 by two-electrode voltage-clamp assay; format: cell-based; details: Oocyte
# [20] = target: T3, Gamma-aminobutyric acid receptor subunit alpha-1/beta-3/gamma-2 (Rattus norvegicus); test: Positive allosteric modulation of rat recombinant GABAA alpha1beta3alpha1-gamma2beta3 receptor expressed in Xenopus laevis oocytes assessed as maximal efficacy at -80 mV holding potential at 30 uM in presence of GABA EC1 to 1.5 by two-electrode voltage-clamp assay; format: cell-based; details: Oocyte
# [21] = target: T2, Gamma-aminobutyric acid receptor subunit alpha-6/beta-3/gamma-2 (Rattus norvegicus); test: Positive allosteric modulation of rat recombinant GABAA alpha6beta3gamma2 receptor expressed in Xenopus laevis oocytes assessed as potentiation of GABA-induced response under less potent current at -80 mV holding potential at 30 uM in presence of GABA EC1 to 1.5 by two-electrode voltage-clamp assay; format: cell-based; details: Oocyte, filed as positive allosteric modulator
# [22] = target: T4, Gamma-aminobutyric acid receptor subunit alpha-1/alpha-6/beta-3/gamma-2 (Rattus norvegicus) (UniProt P18508+P30191+P62813+P63079); test: Positive allosteric modulation of rat recombinant GABAA alpha6beta3alpha1-gamma2beta3 receptor expressed in Xenopus laevis oocytes assessed as maximal efficacy at -80 mV holding potential at 30 nM in presence of GABA EC1 to 1.5 by two-electrode voltage-clamp assay; format: cell-based; details: Oocyte
# [23] = target: T4, Gamma-aminobutyric acid receptor subunit alpha-1/alpha-6/beta-3/gamma-2 (Rattus norvegicus); test: Positive allosteric modulation of rat recombinant GABAA alpha6beta3alpha1-gamma2beta3 receptor expressed in Xenopus laevis oocytes assessed as maximal efficacy at -80 mV holding potential at 100 nM in presence of GABA EC1 to 1.5 by two-electrode voltage-clamp assay; format: cell-based; details: Oocyte
# [24] = target: T4, Gamma-aminobutyric acid receptor subunit alpha-1/alpha-6/beta-3/gamma-2 (Rattus norvegicus); test: Positive allosteric modulation of rat recombinant GABAA alpha6beta3alpha1-gamma2beta3 receptor expressed in Xenopus laevis oocytes assessed as maximal efficacy at -80 mV holding potential at 300 nM in presence of GABA EC1 to 1.5 by two-electrode voltage-clamp assay; format: cell-based; details: Oocyte
# [25] = target: T4, Gamma-aminobutyric acid receptor subunit alpha-1/alpha-6/beta-3/gamma-2 (Rattus norvegicus); test: Positive allosteric modulation of rat recombinant GABAA alpha6beta3alpha1-gamma2beta3 receptor expressed in Xenopus laevis oocytes assessed as maximal efficacy at -80 mV holding potential at 30 uM in presence of GABA EC1 to 1.5 by two-electrode voltage-clamp assay; format: cell-based; details: Oocyte, filed as positive allosteric modulator
# [26] = target: T2, Gamma-aminobutyric acid receptor subunit alpha-6/beta-3/gamma-2 (Rattus norvegicus); test: Positive allosteric modulation of rat recombinant GABAA alpha6beta3gamma2 receptor expressed in Xenopus laevis oocytes assessed as potentiation of GABA-induced response under more potent current at -80 mV holding potential at 100 nM in presence of GABA EC1 to 1.5 by two-electrode voltage-clamp assay; format: cell-based; details: Oocyte, filed as positive allosteric modulator
# [27] = target: T2, Gamma-aminobutyric acid receptor subunit alpha-6/beta-3/gamma-2 (Rattus norvegicus); test: Positive allosteric modulation of rat recombinant GABAA alpha6beta3gamma2 receptor expressed in Xenopus laevis oocytes assessed as potentiation of GABA-induced response under more potent current at -80 mV holding potential at 30 uM in presence of GABA EC1 to 1.5 by two-electrode voltage-clamp assay; format: cell-based; details: Oocyte, filed as positive allosteric modulator
# Oocyte = test: Positive allosteric modulation of rat recombinant GABAA alpha1beta3alpha1 receptor expressed in Xenopus laevis oocytes assessed as activation of maximal current at -80 mV holding potential in presence of GABA EC1 to 1.5 by two-electrode voltage-clamp assay; format: cell-based; details: filed as positive allosteric modulator
# [28] = filed as positive allosteric modulator
smiles,measurement,setting,value
COc1ccc(-n2nc3c4ccccc4[nH]cc-3c2=O)cc1,pEC50,[1],5.05
same,%max,[2],1480%
same,Efficacy,[3],1%
same,Efficacy,[4],8%
same,Efficacy,[5],19%
same,Efficacy,[6],57%
same,Efficacy,[7],63%
same,Efficacy,[8],152%
same,Efficacy,[9],214%
same,Efficacy,[10],751%
same,Efficacy,[11],1360%
COc1ccc(-n2nc3c4ccc(F)cc4[nH]cc-3c2=O)cc1,pEC50,[12],7.55
same,pEC50,[13],4.49
same,%max,[14],96%
same,%max,[15],353%
same,Efficacy,[16],6%
same,Efficacy,[3],16%
same,Efficacy,[4],28%
same,Efficacy,[5]; [28],46%
same,Efficacy,[6],77%
same,Efficacy,[7],118%
same,Efficacy,[8],156%
same,Efficacy,[9],235%
same,Efficacy,[10],300%
same,Efficacy,[11],385%
COc1ccc(-n2nc3c4ccc(C(C)=O)cc4[nH]cc-3c2=O)cc1,pEC50,[12],7.30
same,pEC50,[13],3.13
same,%max,[14],82%
same,%max,[15],2210%
same,Efficacy,[16],9%
same,Efficacy,[3],13%
same,Efficacy,[4],27%
same,Efficacy,[5],31%
same,Efficacy,[6],52%
same,Efficacy,[7],67%
same,Efficacy,[8],101%
same,Efficacy,[9],127%
same,Efficacy,[10],205%
same,Efficacy,[11],426%
same,Efficacy,[17],1%
same,Efficacy,[18],1%
same,Efficacy,[19],1%
same,Efficacy,[20],10%
same,Activity,[21],80%
same,Efficacy,[22],3%
same,Efficacy,[23],3%
same,Efficacy,[24],11%
same,Efficacy,[25],338%
same,Activity,[26],62%
same,Activity,[27],280%
COc1ccc(-n2nc3c4ccc(C)cc4[nH]cc-3c2=O)cc1,pEC50,[1],4.89
same,%max,[2],2050%
same,Efficacy,[16],25%
same,Efficacy,[3],31%
same,Efficacy,[4]; [28],40%
same,Efficacy,[5]; [28],60%
same,Efficacy,[6],100%
same,Efficacy,[7],149%
same,Efficacy,[8],234%
same,Efficacy,[9],456%
same,Efficacy,[10],1020%
same,Efficacy,[11],1310%
CN1C(=O)CN=C(c2ccccc2)c2cc(Cl)ccc21,Activity,Oocyte,30 nanoampere
